Assay results from paper PMC9515143, “Phosphorylation of Jhd2 by the Ras-cAMP-PKA(Tpk2) pathway regulates histone modifications and autophagy” (Nature Communications, 2022).

System: Bcy1
Test: Dissociation of Tpk1, Tpk2, Tpk3 from Bcy1 after glucose, Co-IP
Format: cell-based, budding yeast (Saccharomyces cerevisiae)
Details: 2% glucose, 0-30 min
Method: Yeast whole cell extract was prepared by vortexing with glass beads and then digested with Micrococcal Nuclease (MNase). Pre-cleared cell lysate was incubated with anti-FLAG M2 agarose for 1 hr at 4 °C. The beads were washed three times with IP washing buffer (40 mM HEPES-KOH, pH7.5, 0.1% NP-40, 10% glycerol, 1 mM PMSF, 350 mM NaCl, 2 μg/ml leupeptin, 1 μg/ml pepstatin A) and boiled in SDS-sample buffer for 5 min. Supernatants from the boiled beads were subjected to SDS-PAGE and Western blots.
Supplementary Fi g . 11 Analysis of PKA subunits subcellular localization, expression and Bcy1 dissociation kinetics. a Subcellul ar localiz ation of Tpk1, Tpk2 and Tp k3. Cells (Tpk1-FLAG, Tpk2- FLAG, Tpk3- F LA G) wer e grown in YP+2% glucos e medium. Th e localization of Tpk1, Tpk2 and Tp k3 was detect ed with ant i-F LAG antibod y. […] Bc y1 was immunoprecipitated from cells (Tpk1- FLAG/Bcy1- M yc, Tpk2- FLAG/Bcy1-M yc, Tpk3- FLAG/Bcy1- M yc) with anti-M yc antibody.
For Supplem ent ar y Fi g. 11 b, dat a r ep res ent m ean s ± SEM; n=3 independent ex perim ents. Tw o -sid ed t-t ests were us ed for statistical […]
(1 picture or pasted object on this page, not shown here)

Q: For `OC[C@H]1OC(O)[C@H](O)[C@@H](O)[C@@H]1O` (stereo partly shown) [glucose], which “dissociation of Tpk2 from Bcy1 compared with Tpk1 and Tpk3” value is on record?
A: Tpk2 dissociated with Bcy1 with a faster kinetics than Tpk1 and Tpk3
